Assay results taken from patent publication US20150328269A1, “PREPARATION FOR RADIO PROTECTION” (LYCORED LTD., priority 2012, published 2015).

Key:
[1] = Radiation-induced oxidation of liposomes (MDA/TBA read-out); type: biochemical, hen; conditions: for Radioprotection in %: 500 Gy Co60 γ-quanta, 84.8 Gy/min, liposomes 2 mg/ml phospholipids in saline solution
From the text: (§1) The biologic membranes play the most important role in cell vital activity. The high sensibility of lipids and phospholipids, which are the main structural components of biomembranes, as to oxidative stress, including those caused by irradiation, is the consequence of the high content of unsaturated fatty acids. The liposomes being obtained from phospholipids of hen's egg yolk were used as a model of the biomembranes. The phospholipids are able to form liposome emulsions in water; this allows studying in model experiments the radioprotective and antioxidant properties of various water-soluble and water-insoluble compounds, including water-insoluble phytoene as well. To obtain the liposomes, 20 mg of the phospholipids, being dissolved in chloroform, were entered into a conical vial and dried in vacuum. Then 2 ml of a saline solution containing 0.15 M NaCl, 0.005 M KCl, 0.0012 M KH2PO4, 0.0012 M Na2HPO4 at pH 7.4 was added to the dried sample. The mixture has been shaken, input into an ultrasonic bath for 30 seconds, and then the total volume was increased up to 10 ml, stirred, treated with ultrasound, and as the result the liposome suspension with the phospholipid concentration of 2 mg/ml was received. […] Optical density of the colored TBA products was calculated by the optical density data, considering the molar extinction coefficient at 532 nm equals to 156,000 mol^-1·cm^-1. […] Taking as 100% the level of the MDA increment at the induced liposome oxidation above spontaneous phospholipids oxidation in the absence of phytoene, and taking into account the fact that the presence of phytoene in the liposomes can modify the level of the spontaneous oxidation, the protection efficacy (PE)OK in the […] of the induced liposome oxidation was calculated by the formula: (PE)OK=(CPOK-CPK)·100/(COK-CK), in which CPK , CPOK are the MDA concentrations in the liposomes with phytoene before and after the liposome induced oxidation respectively; CK, COK (are the MDA concentrations in the control liposomes (without phytoene) before and after the liposome induced oxidation respectively.

[2] = Fe++-induced oxidation of liposomes (MDA/TBA read-out); type: biochemical, hen; conditions: for Protection against Fe++-induced oxidation in %: 50 μM Fe++, 30 minutes, room temperature
From the text: as §1

## CC(C)=CCC/C(C)=C/CC/C(C)=C/CC/C(C)=C/C=C/C=C(\C)CC/C=C(\C)CC/C=C(\C)CCC=C(C)C (stereo in doubt) [phytoene]
[1]; phytoene:phospholipid 1:10
  Radioprotection in %: 62.0 ± 10.4%
[1]; phytoene:phospholipid 1:100
  Radioprotection in %: 37.2 ± 5.2%
[1]; summary statement
  Protection of liposomes against oxidative stress induced by the radiation (in words): protects the liposomes against the oxidative stress
[2]; phytoene:phospholipid 1:10
  Protection against Fe++-induced oxidation in %: 50.9 ± 6.6%
[2]; phytoene:phospholipid 1:100
  Protection against Fe++-induced oxidation in %: 18.7 ± 11.5%
[2]; summary statement
  Protection of liposomes against oxidative stress induced with ferrous iron ions (in words): protects the liposomes against the oxidative stress
